Test results published in patent publication US20240269139A1, “COMPOUNDS FOR TARGETED PROTEIN DEGRADATION OF KINASES” (DANA-FARBER CANCER INSTITUTE, INC., priority 2020, published 2024).
Read-outs that look alike come from different tables or passages of the source.

Key:
[1] = biological target: protein kinases (human kinome) (Homo sapiens, UniProt Q05397); type: cell-based
[2] = biological target: protein kinases (human kinome) (Homo sapiens, UniProt Q9Y4K4); type: cell-based; conditions: MAP4K5 (Q9Y4K4)
GCK = biological target: T1, GCK (Homo sapiens, UniProt Q12851); experiment: KiNativ live cell profiling, GCK; type: cell-based, H. sapiens; conditions: MOLT-4 CRBN−/− cells, 1 μM, 5 h
T1 construct: host or cells: CRBN-/- MOLT-4
T1 sequence (Q12851 1-820): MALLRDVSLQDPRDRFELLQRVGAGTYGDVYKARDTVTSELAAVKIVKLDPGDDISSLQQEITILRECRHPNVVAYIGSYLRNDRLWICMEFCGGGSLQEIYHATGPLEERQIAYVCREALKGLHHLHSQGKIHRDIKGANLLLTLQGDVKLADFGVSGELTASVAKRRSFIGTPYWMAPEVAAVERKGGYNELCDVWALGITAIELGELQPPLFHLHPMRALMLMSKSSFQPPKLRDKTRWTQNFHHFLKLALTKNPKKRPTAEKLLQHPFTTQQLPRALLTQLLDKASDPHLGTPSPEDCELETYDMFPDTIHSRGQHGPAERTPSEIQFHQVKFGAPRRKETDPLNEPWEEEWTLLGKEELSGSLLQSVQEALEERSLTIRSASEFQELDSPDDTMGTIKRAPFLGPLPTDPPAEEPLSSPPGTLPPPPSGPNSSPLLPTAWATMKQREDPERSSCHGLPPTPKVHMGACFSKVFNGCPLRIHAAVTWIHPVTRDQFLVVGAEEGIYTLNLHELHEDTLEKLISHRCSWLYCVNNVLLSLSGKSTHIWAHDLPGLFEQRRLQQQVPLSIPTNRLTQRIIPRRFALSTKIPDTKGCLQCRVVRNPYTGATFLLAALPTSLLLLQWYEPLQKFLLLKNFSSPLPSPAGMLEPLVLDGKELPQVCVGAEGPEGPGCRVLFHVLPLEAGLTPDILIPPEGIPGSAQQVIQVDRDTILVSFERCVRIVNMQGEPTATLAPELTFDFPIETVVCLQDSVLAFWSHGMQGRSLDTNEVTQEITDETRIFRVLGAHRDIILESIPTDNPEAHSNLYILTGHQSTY
Method: One of the key features of degraders is their potential for a sub-stoichiometric mode of action (Paiva and Crews, Curr Opin Chem Biol 50:111-119 (2019)). […] While this has been confirmed in a limited number of individual studies, the generalizability of this hypothesis was tested across the kinome. […] The focus of this test was to establish whether cellular target engagement (target occupancy) correlates with degrader efficacy. […] KiNativ™ is an activity based chemoproteomic assay, which measures the ability of a small molecule of interest to block the binding of a covalent ATP-mimetic probe. […] Furthermore, the proportion of degraded kinases with detectable binding varied dramatically from compound to compound, and was unrelated to cellular permeability (FIG. 3F).
CRBN^−/− MOLT-4 cells were plated in fresh media (RPMI-1640+10% FBS) in 15 cm plates and treated for 5 hours with candidate compounds. To harvest cells, plates were harvested using detachment using CellStripper™ detachment solution (Corning®) and washed 2× with cold phosphate-buffered saline (abbreviated PBS), followed by centrifugation and snap-freezing of cell pellets in liquid nitrogen. The remainder of the KiNativ® profiling experiment was performed by ActivX® Biosciences (La Jolla. CA).

protein kinases (human kinome) (Homo sapiens, UniProt Q9Y4K4), sequence (Q9Y4K4 whole entry): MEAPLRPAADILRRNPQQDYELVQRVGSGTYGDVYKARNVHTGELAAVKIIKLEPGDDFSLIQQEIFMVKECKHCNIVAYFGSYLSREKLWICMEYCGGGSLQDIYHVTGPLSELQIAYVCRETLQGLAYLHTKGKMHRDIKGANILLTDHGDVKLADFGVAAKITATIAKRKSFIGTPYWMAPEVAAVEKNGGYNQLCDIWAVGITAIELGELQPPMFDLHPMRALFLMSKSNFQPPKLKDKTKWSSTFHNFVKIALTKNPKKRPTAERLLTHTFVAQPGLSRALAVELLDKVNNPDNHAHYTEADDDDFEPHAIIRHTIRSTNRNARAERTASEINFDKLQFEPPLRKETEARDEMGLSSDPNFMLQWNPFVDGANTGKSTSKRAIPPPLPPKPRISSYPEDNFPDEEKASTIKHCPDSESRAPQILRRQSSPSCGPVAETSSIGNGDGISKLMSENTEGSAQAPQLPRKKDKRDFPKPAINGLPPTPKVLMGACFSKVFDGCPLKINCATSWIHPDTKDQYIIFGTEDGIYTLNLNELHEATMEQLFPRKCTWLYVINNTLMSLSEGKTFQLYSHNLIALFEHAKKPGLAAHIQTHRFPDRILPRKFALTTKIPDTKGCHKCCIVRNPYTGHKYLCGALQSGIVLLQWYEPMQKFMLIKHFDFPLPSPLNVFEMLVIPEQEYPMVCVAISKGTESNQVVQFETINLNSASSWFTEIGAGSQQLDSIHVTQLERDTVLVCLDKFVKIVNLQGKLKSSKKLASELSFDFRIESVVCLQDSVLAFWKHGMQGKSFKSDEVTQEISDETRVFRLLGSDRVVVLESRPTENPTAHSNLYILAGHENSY
protein kinases (human kinome) (Homo sapiens, UniProt Q05397), sequence (Q05397 whole entry): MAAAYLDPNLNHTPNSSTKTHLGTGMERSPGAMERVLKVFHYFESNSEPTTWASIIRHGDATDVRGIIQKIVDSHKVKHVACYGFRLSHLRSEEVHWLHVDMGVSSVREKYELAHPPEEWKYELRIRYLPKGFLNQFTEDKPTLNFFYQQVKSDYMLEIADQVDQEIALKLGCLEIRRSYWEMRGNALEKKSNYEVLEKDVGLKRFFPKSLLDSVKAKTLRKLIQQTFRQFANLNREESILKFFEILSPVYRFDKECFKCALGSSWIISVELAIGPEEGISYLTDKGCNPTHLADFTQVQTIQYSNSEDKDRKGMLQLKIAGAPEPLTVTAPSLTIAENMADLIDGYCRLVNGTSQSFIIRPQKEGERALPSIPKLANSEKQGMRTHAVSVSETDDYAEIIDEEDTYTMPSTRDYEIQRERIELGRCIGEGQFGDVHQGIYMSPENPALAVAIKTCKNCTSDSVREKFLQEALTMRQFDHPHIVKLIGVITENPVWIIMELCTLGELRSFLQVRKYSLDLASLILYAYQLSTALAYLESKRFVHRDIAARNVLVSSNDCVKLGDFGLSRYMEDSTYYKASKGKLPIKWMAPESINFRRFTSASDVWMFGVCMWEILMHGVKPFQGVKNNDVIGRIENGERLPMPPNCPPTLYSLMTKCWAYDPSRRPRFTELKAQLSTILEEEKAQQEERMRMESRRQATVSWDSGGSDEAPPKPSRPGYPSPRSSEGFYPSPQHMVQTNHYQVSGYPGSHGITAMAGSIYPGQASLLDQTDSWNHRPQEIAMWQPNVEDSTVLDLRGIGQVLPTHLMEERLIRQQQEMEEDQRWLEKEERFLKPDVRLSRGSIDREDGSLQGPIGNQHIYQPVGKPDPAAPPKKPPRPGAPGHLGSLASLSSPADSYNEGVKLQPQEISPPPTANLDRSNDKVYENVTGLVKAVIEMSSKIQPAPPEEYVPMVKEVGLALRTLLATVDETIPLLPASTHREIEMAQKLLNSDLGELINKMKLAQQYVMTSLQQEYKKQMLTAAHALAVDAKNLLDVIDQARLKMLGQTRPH

Compound | logFC PTK2 ([1]; Accession Q05397, experiment wp105, direction down) | logFC PTK2 ([1]; PTK2 Q05397, experiment wp105) | logFC ([1]; PTK2 Q05397, experiment wp114) | logFC PTK2 ([1]; PTK2 Q05397, experiment wp114) | logFC ([1]; PTK2 Q05397, experiment wp172) | logFC PTK2 ([1]; PTK2 Q05397, experiment wp172) | logFC ([2]; experiment wp045) | logFC ([2]; experiment wp045, direction down) | logFC ([2]; experiment wp107) | logFC ([2]; experiment wp107, direction down) | logFC ([2]; experiment wp160, 8 hr) | logFC ([2]; experiment wp160, 8 hr, direction down) | GCK inhibition of probe binding (KiNativ) (GCK) [% I]
Cc1ccc(NC(=O)c2cccc(C(F)(F)F)c2)cc1N1Cc2cnc(Nc3ccc(N4CCN(Cc5cn(CCCCCOc6cccc7c6C(=O)N(C6CCC(=O)NC6=O)C7=O)nn5)CC4)nc3)nc2N(C)C1=O (stereo not drawn) [DB0646, N-(3-(7-((6-(4-((1-(5-((2-(2,6-Dioxopiperidin-3-yl)-1,3-dioxoisoindolin-4-yl)oxy)pentyl)-1H-1,2,3-triazol-4-yl)methyl)piperazin-1-v)pyridin-3-yl)amino)-1-methyl-2-oxo-1,4-dihydropyrimido[4,5-d]pyrimidin-3(2H)-yl)-4-methylphenyl)-3-(trifluoromethyl)benzamide] | −0.5575 | −0.5575 | −0.5538 | −0.5538 | −0.8047 | −0.8047 | −0.4109 | −0.4109 | −0.3345 | −0.3345 | −0.5009 | −0.5009 | 58
Cc1ccc(C(=O)Nc2ccc(CN3CCN(CCCOCCOCCOCCNC(=O)COc4cccc5c4C(=O)N(C4CCC(=O)NC4=O)C5=O)CC3)c(C(F)(F)F)c2)cc1C#Cc1cnc2cccnn12 (stereo not drawn) [SB1-G-187, N-(4-((4-(1-((2-(2,6-dioxopiperidin-3-yl)-1,3-dioxoisoindolin-4-yl)oxy)-2-oxo-6,9,12-trioxa-3-azapentadecan-15-yl)piperazin-1-yl)methyl)-3 (trifluoromethyl)phenyl)-3-(imidazo[1,2-b]pyridazin-3-ylethynyl)-4-methylbenzamide] |  |  |  |  |  |  |  |  |  |  |  |  | 94
CC(C)S(=O)(=O)c1ccccc1Nc1nc(Nc2ccc(N3CCN(CCOCCNC(=O)CNc4cccc5c4C(=O)N(C4CCC(=O)NC4=O)C5=O)CC3)cc2)ncc1Cl (stereo not drawn) [SK-3-91] |  |  |  |  |  |  |  |  |  |  |  |  | 50
